According to patent publication US4859468A, “Compositions and method for decomposing adipose tissue” (Senju Pharmaceutical Co., Ltd., priority 1985, dated 1989):

Tested on: free fat cell
Experiment: Activity on the adrenaline's decomposing action on free fat cell (free fatty acid liberation with adrenaline)
Type: cell-based, male Wister rat
Conditions: adrenaline 0.5 μg/ml alone
Description: Eight grams of fat tissue at epididymis of male Wister rat (body weight 150-200 g) was sliced and was added into 20 ml of a Krebs-Ringer phosphoric acid buffer solution (pH 7.4) (hereinafter referred to as KRP buffer solution) containing 20 mg of glucose, 4% of bovine serum albumin and 20 mg of collagenase. The mixture was incubated at 37° C. for 50 min, and after filtration with nylon mesh, was centrifuged at 500 rpm for 30 sec; then, any portion that was not the fat cell layer was sucked out. The fat cell layer was washed twice with the KRP buffer solution and then diluted to 20 ml by addition of the KRP buffer solution. To 0.25 ml of this suspension, 0.5 ml of KRP buffer solution containing 5% of bovine serum albumin and 0.1 ml of the liquids to be tested or KRP buffer solution as control were added; these mixtures were incubated at 37° C. for 2 hr and the freed fatty acids were assayed by Dole's method (V. P. Dole, J. Clin. Invest., 35, 150 (1956)).

CNCC(O)c1ccc(O)c(O)c1 (stereo not shown) [adrenaline]
action of adrenaline on free fat cell (in words): free fatty acid is freed
